This note sets out measurements from patent US12023334B2, “Composition including rilpivirine and method for treating tumors or cancer” (APTORUM THERAPEUTICS LIMITED, priority 2019, dated 2024).

What all share (type): cell-based
Experiment [1] relates to SH-SY5Y cell line. The experiment in a line: MTT cell proliferation assay, SH-SY5Y. The method, then:
In the present invention, the IC50 concentrations required to inhibit the activity of IMR-32 cell line and other neuroblastoma cell lines were determined for rilpivirine and other chemotherapeutic agents, and presented on the two-coordinate plot with x- and y-axes, forming the two points (IC50, rilpivirine, 0) and (0, IC50, chemotherapeutic agents). […] Moreover, the concentration or ratios of rilpivirine in combination with chemotherapeutic agents which provide the same inhibition effect are denoted as point (Crilpivirine, 50, Cchemotherapeutic agents, 50) in the same plot.
The combination index provides a quantitative measurement of the drug-drug interaction at the given effect level. The combination index (CI) is calculated by following equation: […]
The IMR-32, SK-N-SH, SH-SY5Y and SK-N-BE(2) tumor cell lines were purchased from American Type Culture Collection (ATCC, Manassas, VA). […] The cells were incubated for 72 hours and then cell proliferation was measured by 3-(4,5-dimethyl-2-thiazolyl)-2,5-diphenyl-2H-tetrazolium bromide (MTT) colorimetric assays (Sigma-Aldrich, Inc., St. Louis, MO). […] Absorbance of each well was measured with a spectrophotometer (uQuant SpectroMAX Gemini Dual-scanning microplate spectro, Bio-tek Instrument Inc.) at 550 nm. Growth inhibition was expressed as the ratio of the mean absorbance of treated cells relative to that of the control.
For orientation: Tetrazolium dyes change colour on reduction, which living cells bring about.

Experiment [2] has as its system MOLT-4. The experiment in a line: EC50 in cancer cell line, rilpivirine alone. To be noted: Homo sapiens, Acute lymphoblastic leukemia.
Experiment [3] concerns Thp1. The experiment in a line: EC50 in cancer cell line, rilpivirine alone. As to conditions: Homo sapiens, THP-1, Acute monocytic leukemia.
Experiment [4] has as its system MV-4-11. The experiment in a line: EC50 in cancer cell line, rilpivirine alone. To be noted: Homo sapiens, MV4-11, Biphenotypic B myelomonocytic leukemia.
Experiment [5] relates to T47D. The experiment in a line: EC50 in cancer cell line, rilpivirine alone. To be noted: Homo sapiens, Breast.
For experiment [6], the system named is GA-10. The experiment in a line: EC50 in cancer cell line, rilpivirine alone. As to conditions: Homo sapiens, Burkitt's lymphoma.
The subject of experiment [7] is DOHH-2. The experiment in a line: EC50 in cancer cell line, rilpivirine alone. To be noted: Homo sapiens, B-cell lymphoma.
Experiment [8] relates to KU812. The experiment in a line: EC50 in cancer cell line, rilpivirine alone. As to conditions: Homo sapiens, Chronic myelogenous leukemia.
The subject of experiment [9] is RKO-AS45-1. The experiment in a line: EC50 in cancer cell line, rilpivirine alone. As to conditions: RKOAS451, Colon.
Experiment [10] concerns HuTu80. The experiment in a line: EC50 in cancer cell line, rilpivirine alone. As to conditions: Homo sapiens, Duodenum.
In experiment [11] the test system is TF-1. The experiment in a line: EC50 in cancer cell line, rilpivirine alone. To be noted: Homo sapiens, Erythroleukemia.
For experiment [12], the system named is TUR. The experiment in a line: EC50 in cancer cell line, rilpivirine alone. To be noted: Histiocytic lymphoma.
In experiment [13] the test system is U-937. The experiment in a line: EC50 in cancer cell line, rilpivirine alone. As to conditions: Homo sapiens, Histiocytic lymphoma.
Experiment [14] deals with Caki-2. The experiment in a line: EC50 in cancer cell line, rilpivirine alone. As to conditions: Homo sapiens, Kidney.
Experiment [15] deals with JVM-2. The experiment in a line: EC50 in cancer cell line, rilpivirine alone. To be noted: Homo sapiens, Mantle cell lymphoma.
The test system of experiment [16] is HMCB. The experiment in a line: EC50 in cancer cell line, rilpivirine alone. As to conditions: Homo sapiens, Melanoma.
Experiment [17] deals with IM-9. The experiment in a line: EC50 in cancer cell line, rilpivirine alone. To be noted: Homo sapiens, Multiple myeloma.
Experiment [18] concerns SK-N-AS. The experiment in a line: EC50 in cancer cell line, rilpivirine alone. As to conditions: Homo sapiens, Neuroblastoma.
Experiment [19] concerns PC-3. The experiment in a line: EC50 in cancer cell line, rilpivirine alone. As to conditions: Homo sapiens, Prostate.

What is called IC50 is the midpoint of a concentration-inhibition curve. The term EC50 denotes the concentration giving half of the maximal effect. A high value points to weaker potency.

For `Cc1cc(/C=C/C#N)cc(C)c1Nc1ccnc(Nc2ccc(C#N)cc2)n1` [rilpivirine], the “growth of neuroblastoma cell line under rilpivirine treatment” value in experiment [1] was “successfully inhibited”. Besides, the IC50 in experiment [1] (Homo sapiens, rilpivirine alone, 72 hours) is 3.12 µM. Besides, the EC50 in experiment [2] was found to be 3.75 µM; in experiment [3], 4.29 µM; in experiment [4], 4.88 µM; in [5], 3.23 µM; in experiment [6] it was 3.7 µM; in [7], 4.45 µM. Further, the EC50 in experiment [8] was 4.09 µM; in experiment [9], 4.4 µM; in [10], 3.59 µM; in experiment [11], 3.76 µM; in experiment [12], 2.08 µM; in experiment [13], 3.37 µM. Besides, the EC50 in experiment [14] amounted to 4.05 µM; in [15], 2.74 µM; in experiment [16], 3.49 µM; in [17] it was 4.13 µM; in [18], 4.84 µM; in experiment [19], 6.23 µM.
